TGI and GI50 data for twelve molecules are collected here from PubChem BioAssay (NCI).

Test systems include NCI-H226 lung; M14 melanoma; CCRF-CEM leukemia; OVCAR-4 ovarian; SK-OV-3 ovarian; SN12C renal; IGROV1 ovarian; BT-549 breast; SF-539 CNS; MDA-MB-231 breast.
What all share (assay): NCI anticancer screen, dose series, 48 h

Several values for one entry are separate records, joined by “and”; a condition that tells them apart may be missing. Equal values may be shown once.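 All cell lines were grown in 96-well plates and treated with compound for 48 hours. GI50 = concentration required for 50% inhibition of growth. TGI denotes the concentration required for complete inhibition of growth.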

With `CCOC(=O)c1cc([N+](=O)[O-])cc([N+](=O)[O-])c1Sc1ncnc2nc[nH]c12`, the TGI in the experiment on NCI-H226 lung was above 100 µM; in the experiment on M14 melanoma, 2.66 µM; in the experiment with CCRF-CEM leukemia, 6.84 µM; with OVCAR-4 ovarian, 2.41 µM; in the experiment on SK-OV-3 ovarian, 23.3 µM; with SN12C renal it was 5.34 µM. Besides, the TGI with IGROV1 ovarian is 6.13 µM; in the experiment with BT-549 breast, 8.59 µM; with SF-539 CNS, 15.7 µM; in the experiment with MDA-MB-231 breast, 24.9 µM.

For the molecule `NC(CS)C(=O)NCCNc1ccc(NCCNC(=O)C(N)CS)c2c1C(=O)c1c(O)ccc(O)c1C2=O` (stereo unspecified), the TGI in the experiment on NCI-H226 lung was 0.0616 µM and 0.0476 µM; in the experiment with M14 melanoma it was 1.28 µM and 1.1 µM; in the experiment on CCRF-CEM leukemia, 0.517 µM; in the experiment with OVCAR-4 ovarian, 0.847 µM and 0.401 µM; with SN12C renal, 0.0822 µM and 0.0691 µM; in the experiment with IGROV1 ovarian, 1.47 µM. Moreover, the TGI in the experiment with BT-549 breast was 1.42 µM; with SF-539 CNS it was 0.728 µM and 0.193 µM; in the experiment on MDA-MB-231 breast, 1.62 µM. For the same molecule, the GI50 with OVCAR-4 ovarian was 0.109 µM; in the experiment with SK-OV-3 ovarian, 0.0165 µM.

Consider `CN(C)CCCN=c1c2ccccc2n(C)c2[nH]c(=O)n(C)c(=O)c12`, for which the TGI is 18.4 µM with NCI-H226 lung; 17.1 µM in the experiment on M14 melanoma; 16.8 µM in the experiment on CCRF-CEM leukemia; 36.2 µM with OVCAR-4 ovarian; 50.3 µM in the experiment on SK-OV-3 ovarian; above 51.6 µM in the experiment on SN12C renal. Also, the TGI in the experiment on IGROV1 ovarian was above 100 µM; with BT-549 breast, 36.8 µM; in the experiment on SF-539 CNS, 22.4 µM; in the experiment on MDA-MB-231 breast it was 28 µM.

Turning to `N#Cc1c(O)c(C=O)c(=O)n2c1[nH]c1ccccc12`, the TGI with NCI-H226 lung, with M14 melanoma, in the experiment on CCRF-CEM leukemia, in the experiment with OVCAR-4 ovarian, in the experiment on SK-OV-3 ovarian and in the experiment on SN12C renal was above 100 µM throughout. In addition, the TGI in the experiment on IGROV1 ovarian, in the experiment on BT-549 breast, in the experiment on SF-539 CNS and with MDA-MB-231 breast was above 100 µM each time.

For the molecule `COC(=O)[C@@H](NC(=O)c1ccc(CNC(=O)/C(C)=C/c2ccccc2)cc1)C(C)C`, the TGI in the experiment with NCI-H226 lung, in the experiment on M14 melanoma, with CCRF-CEM leukemia, in the experiment with OVCAR-4 ovarian, in the experiment with SK-OV-3 ovarian and with SN12C renal was above 100 µM in each case. For the same molecule, the TGI in the experiment with IGROV1 ovarian, in the experiment with BT-549 breast, in the experiment with SF-539 CNS and in the experiment on MDA-MB-231 breast was above 100 µM each time.

Regarding `O=[N+]([O-])c1ccc2c(N=Nc3ccc4ccccc4c3O)c(O)cc(S(=O)(=O)O)c2c1`, the TGI in the experiment with NCI-H226 lung was 52.5 µM; in the experiment on M14 melanoma, 32.4 µM; in the experiment on CCRF-CEM leukemia, 22 µM; in the experiment on OVCAR-4 ovarian it was above 100 µM; in the experiment with SK-OV-3 ovarian it was above 100 µM; with SN12C renal it was above 100 µM. The TGI in the experiment on IGROV1 ovarian is above 61.9 µM; with BT-549 breast it was above 100 µM; in the experiment on SF-539 CNS, above 28.5 µM; in the experiment on MDA-MB-231 breast, above 100 µM.

Take `O=C(c1cccnc1)N1N=C(c2ccc3c(c2)OCO3)CC1(O)c1cc(F)c(Cl)cc1Cl` (stereo unspecified): the TGI with NCI-H226 lung is 33.3 µM; in the experiment with M14 melanoma, above 100 µM; in the experiment with CCRF-CEM leukemia, 75.4 µM; in the experiment on OVCAR-4 ovarian, above 100 µM; with SK-OV-3 ovarian, above 100 µM; in the experiment on SN12C renal it was 36.5 µM. Moreover, the TGI came out at 34.1 µM in the experiment with IGROV1 ovarian, 47.9 µM in the experiment with BT-549 breast, 33.6 µM in the experiment with SF-539 CNS and 40.5 µM in the experiment on MDA-MB-231 breast.

`O=C1C=CC(=O)[C@H]2C3C=CC(C4C3C3(Cl)C(Cl)=C(Cl)[C@]4(Cl)C3(Cl)Cl)[C@@H]12` (stereo partly specified): the TGI is 23.5 µM in the experiment with NCI-H226 lung; 16 µM in the experiment on M14 melanoma; 16.2 µM in the experiment with CCRF-CEM leukemia; 16.2 µM with OVCAR-4 ovarian; 27.3 µM with SK-OV-3 ovarian; 18.2 µM in the experiment on SN12C renal. The TGI in the experiment on IGROV1 ovarian was found to be 18.4 µM; with BT-549 breast it was 19.2 µM; with SF-539 CNS, 17.9 µM; with MDA-MB-231 breast it was 16.7 µM.

As for `NCCN(CCN)/[N+]([O-])=N/O`, the TGI in the experiment with NCI-H226 lung, in the experiment on M14 melanoma, in the experiment with CCRF-CEM leukemia, in the experiment on OVCAR-4 ovarian, with SK-OV-3 ovarian and in the experiment with SN12C renal was above 100 µM throughout. Also, the TGI in the experiment with IGROV1 ovarian, with BT-549 breast, with SF-539 CNS and in the experiment with MDA-MB-231 breast was above 100 µM each time.

`O=C(NCCCc1cn[nH]c(=O)n1)c1cccc2nc3ccccc3nc12`: the TGI with NCI-H226 lung, in the experiment with M14 melanoma, in the experiment on CCRF-CEM leukemia, with OVCAR-4 ovarian, in the experiment on SK-OV-3 ovarian and with SN12C renal was above 100 µM in each case. The TGI with IGROV1 ovarian, with BT-549 breast, in the experiment on SF-539 CNS and in the experiment with MDA-MB-231 breast was above 100 µM in each case.

On to `O=C1C(c2c(O)[nH]c3ccc(I)cc23)=Nc2ccccc21`, for which the TGI with NCI-H226 lung was 6.94 µM; in the experiment with M14 melanoma, above 100 µM; in the experiment with CCRF-CEM leukemia, above 100 µM; in the experiment with OVCAR-4 ovarian, above 44.7 µM; in the experiment on SK-OV-3 ovarian, 22.8 µM; in the experiment on SN12C renal, above 74.1 µM. In addition, the TGI stood at 9.24 µM in the experiment on IGROV1 ovarian, 29.2 µM in the experiment on BT-549 breast, 23.3 µM in the experiment on SF-539 CNS and 8.47 µM in the experiment on MDA-MB-231 breast.

Regarding `Cc1ccc(O)cc1` (tested in a mixture with another compound), the TGI in the experiment on NCI-H226 lung, in the experiment on M14 melanoma, in the experiment on CCRF-CEM leukemia, in the experiment with OVCAR-4 ovarian, with SK-OV-3 ovarian and with SN12C renal was above 100 µM throughout. The TGI with IGROV1 ovarian, with BT-549 breast, in the experiment on SF-539 CNS and in the experiment on MDA-MB-231 breast was above 100 µM in each case.
